In PMC3527430, “Total Synthesis of Septocylindrin B and C-Terminus Modified Analogues” (PLoS ONE, 2012):
Like-named read-outs stand apart in the source and are kept apart here. Square brackets hold non-standard residues; d marks the D form. Peptide text beside a SMILES is read from it. * marks the point of attachment. X2 = CCCCCCNC[C@H](Cc1ccccc1)N*; X3 = OCCCCCNC[C@H](Cc1ccccc1)N*; X1 = OCCNC[C@H](Cc1ccccc1)N*; Aib = CC(C)(N)C(=O)O

Key:
Bacillus cereus = type: cell-based
Procedure: (§1) All these peptides were tested for their antibacterial activity using standard minimal inhibitory concentration (MIC) assays exactly as described in Mattheus et al. […] They are identical except for the glutamine residues, which are replaced with methyl protected glutamic acid residues in ABCD-Phaol. Although ABCD-Phaol should be a functionally reliable model of its natural counterpart, the difference in activity can only be explained by the different interaction with the membrane of the amino acid residue side chains. The amide interaction positively influences activity, so the conversion of Glu(OMe) to Gln improves the activity.

Bacillus subtilis = type: cell-based
Procedure: as §1

Enterococcus faecalis = type: cell-based
Procedure: as §1

Staphylococcus aureus [1] = type: cell-based
Procedure: as §1

[2] = test system: Bacillus cereus, Bacillus subtilis, Enterococcus faecalis, Staphylococcus aureus; test: Antibacterial activity, MIC assays, overall statement on the bacteria tested; type: cell-based; details: standard MIC assays; four bacteria tested
Procedure: as §1

Staphylococcus aureus [3] = details: natural Septocylindrin B; ref [1]; cited from earlier work
From the text: Table 1 Antibacterial activity (MIC, µM) of Septocylindrin B and selected analogues. ^a | column: Staphylococcus aureus

[4] = standard MIC assay as described in Mattheus et al. [13], cell holds only footnote mark d
[5] = standard MIC assay as described in Mattheus et al. [13]

Molecule | Antibacterial activity (MIC) Bacillus cereus (Bacillus cereus) [µM] | Antibacterial activity (MIC) Bacillus subtilis (Bacillus subtilis) [µM] | Antibacterial activity (MIC) Enterococcus faecalis (Enterococcus faecalis) [µM] | Antibacterial activity (MIC) Staphylococcus aureus (Staphylococcus aureus [1]; [4]) | Antibacterial activity (MIC) Staphylococcus aureus (Staphylococcus aureus [1]) [µM] | Antibacterial activity, result in words [2] | Antibacterial activity (MIC) Staphylococcus aureus (Staphylococcus aureus [3]) [µM] | Antibacterial activity (MIC) Bacillus cereus (Bacillus cereus; [5]) [µM] | Antibacterial activity (MIC) Bacillus subtilis (Bacillus subtilis; [5]) [µM] | Antibacterial activity (MIC) Enterococcus faecalis (Enterococcus faecalis; [5]) [µM]
COC(=O)CC[C@H](NC(=O)[C@H](C)NC(=O)C(C)(C)NC(=O)[C@H](C)NC(=O)C(C)(C)NC(=O)[C@@H]1CCCN1C(=O)C(C)(C)NC(C)=O)C(=O)NC(C)(C)C(=O)N[C@H](C(=O)NC(C)(C)C(=O)NCC(=O)N[C@@H](CC(C)C)C(=O)NC(C)(C)C(=O)N1CCC[C@H]1C(=O)N[C@H](C(=O)NC(C)(C)C(=O)NC(C)(C)C(=O)N[C@@H](CCC(=O)OC)C(=O)N[C@@H](CCC(=O)OC)C(=O)N[C@H](CNCCCCCO)Cc1ccccc1)C(C)C)C(C)C [ABCD-Phaol-N5O, Ac-Aib1-Pro2-Aib3-Ala4-Aib5-Ala6-Glu(OMe)7-Aib8-Val9-Aib10-Gly11-Leu12-Aib13-Pro14-Val15-Aib16-Aib17-Glu(OMe)18-Glu(OMe)19-Phaol20-N5O] (Ac-[Aib]P[Aib]A[Aib]AE(OMe)[Aib]V[Aib]GL[Aib]PV[Aib][Aib]E(OMe)E(OMe)-X3) | 50 | >100 | 1.5 | ^d (A reduced growth is clearly visible, but no MIC end point ≤100 µM) | – | – | – | – | – | –
CCCCCCNC[C@H](Cc1ccccc1)NC(=O)[C@H](CCC(=O)OC)NC(=O)[C@H](CCC(=O)OC)NC(=O)C(C)(C)NC(=O)C(C)(C)NC(=O)[C@@H](NC(=O)[C@@H]1CCCN1C(=O)C(C)(C)NC(=O)[C@H](CC(C)C)NC(=O)CNC(=O)C(C)(C)NC(=O)[C@@H](NC(=O)C(C)(C)NC(=O)[C@H](CCC(=O)OC)NC(=O)[C@H](C)NC(=O)C(C)(C)NC(=O)[C@H](C)NC(=O)C(C)(C)NC(=O)[C@@H]1CCCN1C(=O)C(C)(C)NC(C)=O)C(C)C)C(C)C [ABCD-Phaol-N6, Ac-Aib1-Pro2-Aib3-Ala4-Aib5-Ala6-Glu(OMe)7-Aib8-Val9-Aib10-Gly11-Leu12-Aib13-Pro14-Val15-Aib16-Aib17-Glu(OMe)18-Glu(OMe)19-Phaol20-N6] (Ac-[Aib]P[Aib]A[Aib]AE(OMe)[Aib]V[Aib]GL[Aib]PV[Aib][Aib]E(OMe)E(OMe)-X2) | >100 | >100 | 25 | – | >100 | – | – | – | – | –
CC(=O)NC(C)(C)C(=O)N1CCC[C@H]1C(=O)NC(C)(C)C(=O)N[C@@H](C)C(=O)NC(C)(C)C(=O)N[C@@H](C)C(=O)N[C@@H](CCC(N)=O)C(=O)NC(C)(C)C(=O)N[C@H](C(=O)NC(C)(C)C(=O)NCC(=O)N[C@@H](CC(C)C)C(=O)NC(C)(C)C(=O)N1CCC[C@H]1C(=O)N[C@H](C(=O)NC(C)(C)C(=O)NC(C)(C)C(=O)N[C@@H](CCC(N)=O)C(=O)N[C@@H](CCC(N)=O)C(=O)N[C@H](CNCCO)Cc1ccccc1)C(C)C)C(C)C [Septocylindrin B synthetic] (Ac-[Aib]P[Aib]A[Aib]AQ[Aib]V[Aib]GL[Aib]PV[Aib][Aib]QQ-X1) | 6.25 | 12.5 | 6.25 | – | 12.5 | activity against all four bacteria tested | 8 | – | – | –
COC(=O)CC[C@H](NC(=O)[C@H](C)NC(=O)C(C)(C)NC(=O)[C@H](C)NC(=O)C(C)(C)NC(=O)[C@@H]1CCCN1C(=O)C(C)(C)NC(C)=O)C(=O)NC(C)(C)C(=O)N[C@H](C(=O)NC(C)(C)C(=O)NCC(=O)N[C@@H](CC(C)C)C(=O)NC(C)(C)C(=O)N1CCC[C@H]1C(=O)N[C@H](C(=O)NC(C)(C)C(=O)NC(C)(C)C(=O)N[C@@H](CCC(=O)OC)C(=O)N[C@@H](CCC(=O)OC)C(=O)N[C@H](CNCCO)Cc1ccccc1)C(C)C)C(C)C [ABCD-Phaol] (Ac-[Aib]P[Aib]A[Aib]AE(OMe)[Aib]V[Aib]GL[Aib]PV[Aib][Aib]E(OMe)E(OMe)-X1) | >50 | >50 | 6 | – | >50 | – | – | – | – | –
Ac-Aib1-Pro2-Aib3-Ala4-Aib5-Ala6-Glu(OMe)7-Aib8-Val9-Aib10-Gly11-Leu12-Aib13-Pro14-Val15-Aib16-Aib17-Glu(OMe)18-Glu(OMe)19- Phe20-ethanolamine [ABCD-Phe-ethanolamine] | – | – | – | ^d (A reduced growth is clearly visible, but no MIC end point ≤100 µM) | – | – | – | 100 | >100 | 6
